{
  "source": "patent US20160222014A1",
  "about": "“COMPOUNDS FOR REGULATING FAK AND/OR SRC PATHWAYS” (ASANA BIOSCIENCES, LLC, priority 2013, published 2016)",
  "key": {"[1]": {"target": "T1, AURKB (Aurora B) enzyme (Homo sapiens, UniProt Q96GD4)", "T1 construct": "purchased Invitrogen PVR 130", "T1 sequence (Q96GD4 whole entry)": "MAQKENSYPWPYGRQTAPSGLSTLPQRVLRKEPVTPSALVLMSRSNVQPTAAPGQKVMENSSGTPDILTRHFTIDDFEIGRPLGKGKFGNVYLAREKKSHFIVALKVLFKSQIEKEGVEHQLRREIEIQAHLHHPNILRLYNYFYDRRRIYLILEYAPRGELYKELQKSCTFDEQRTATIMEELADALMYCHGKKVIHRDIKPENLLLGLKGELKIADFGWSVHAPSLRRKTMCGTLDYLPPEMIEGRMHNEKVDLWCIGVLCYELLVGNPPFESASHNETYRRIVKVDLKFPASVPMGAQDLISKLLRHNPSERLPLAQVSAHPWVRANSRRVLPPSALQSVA", "test": "Aurora B HTRF assay", "type": "biochemical", "conditions": "read-out: AuroraB IC50", "procedure": "AURKB (Aurora B) enzyme was obtained (Invitrogen, Cat No. PVR 130, Lot No. 857013J). A 8.64 μM stock was used at a final concentration 5 nM in the assay.\nLance@Ultera Ulight-PLK (Ser137) peptide substrate\nPeptide substrate was obtained from Perkin Elmer (Lot#1629793, TRF0110-M). A 5 μM stock was used at a final concentration of 50 nM in the assay.\n10 mM stock prepared freshly as above, used at a final concentration of 30 μM in assay.\nThe plate was covered with aluminum foil, put on a shaker and incubated 1 h at rt.\nReference: Pfizer aurora inhibitor PF-03814735 was procured from Selleckchem: Cat# S2725\nUsing stock Lance detection buffer, 1× Lance detection buffer was prepared. • 1. 10× lance detection buffer was diluted to 1×, mixed well and 100 μL was removed, and was used to substitute with antibody and EDTA (for a total of 2200 μL). • 2. 88 μL of […] EDTA was added from 500 mM stock. • 3. 14 μL Europium labeled antibody (LANCE@ Ultra EU-Anti-P-PLK(Ser 137), TRF0203-D, Lot No. 1630351, Perkin Elmer) was added from 625 nM stock; required concentration was 2 nM in the assay. • 4. The buffer well was mixed and 20 μL was transferred to the each well in the assay plate. • 5. The solutions were incubated for 1 h at rt. • 6. The plate was read using MET-HTRF® protocol using Pherastar equipment."}, "[2]": {"target": "T2, recombinant human FAK1 (Homo sapiens, UniProt Q05397)", "T2 construct": "fused on or other part: N-terminal 6xHis tag", "T2 sequence (Q05397 422-680 limits assumed)": "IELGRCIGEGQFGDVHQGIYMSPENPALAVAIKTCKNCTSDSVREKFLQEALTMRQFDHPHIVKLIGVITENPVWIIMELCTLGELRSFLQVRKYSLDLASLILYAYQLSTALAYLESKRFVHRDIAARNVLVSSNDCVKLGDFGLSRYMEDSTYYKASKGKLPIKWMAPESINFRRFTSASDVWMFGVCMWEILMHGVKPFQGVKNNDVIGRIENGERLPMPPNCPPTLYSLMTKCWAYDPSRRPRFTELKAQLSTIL", "test": "FAK1 HTRF assay", "type": "biochemical", "procedure": "Active FAK1 was prepared for use in the Homogeneous Time-Resolved Fluorescence (HTRF) assay. Briefly, N-terminal 6 His tagged recombinant human FAK1, from residue 692-end (GenBank accession no. L13616) was expressed by Bacculovirus in sf9 cells. […] A 1.6 mg/mL (45 μM) stock was used in the HTRF assay at a final concentration of 10 nM.\nGastrin precursor (tyr87) biotinylated peptide which contains the residues surrounding tyrosine 87 (EEAY*GWM) of gastrin precursor was obtained (Cell Signaling Tech, Item no. 1310, Lot 7). The peptide was provided at a stock concentration of 6 μM, and used a final concentration of 0.5 μM in the HTRF assay.\n10 mM stock in 100 μL Enzyme assay buffer pH7.4 was prepared freshly and used at a final concentration of 10 μM in the assay.\nPowders were dissolved in 100% DMSO to a final stock concentration of 10 mM. The volume needed (in μL) to add for 10 mM=mg powder is 10^5/MW of compound. The final compound concentration in the assay plate started at 10 μM.\nPfizer FAK inhibitor PF-562271 (N-methyl-N-(3-(((2-((2-oxoindolin-5-yl)amino)-5-(trifluoromethyl)pyrimidin-4-yl)amino)methyl)pyridin-2-yl)methanesulfonamide) was prepared as per the reported procedure from US Patent Publication No. 2005/256145A1.\nStreptavidin-Allophycocyanin was obtained (Prozyme, Cat. No. PJ25S. SA-APC was provided at a stock concentration of 2.06 mg/mL, where APC concentration was 11.6 μM and the streptavidin concentration was 15.5 μM. SA-APC was used at a final concentration of 12 nM in the assay (based on streptavidin concentration).\nThis reagent was obtained from Perkin ElmerAD0068. Europium-W1024-PT-66 Anti Phospho Tyrosine Ab is a monoclonal IgG1 that recognizes phospho tyrosine peptide. 100 μg/mL stock was used at a final concentration of 0.1 nM in the assay.\n• 1. The compound dilutions were made by TECAN liquid handler as per the scheme in FIG. 1. • 2. 16 μL of diluted compound was added to each well of the assay plate using TECAN liquid handler. • 3. 20 μL of substrate mix (biotinylated gastrin precursor) was added into each well of the assay plate manually. • 4. 10 μL of enzyme mix (FAK1) was added to each well except mins. • 5. The plate was incubated at rt for 45 min with shaking. • 6. The HTRF mix was prepared and 75 μL was added to the HTRF plate. • 7. After the incubation was over, 10 μL of the mixture was transferred to the HTRF assay plate and incubated for 45 min at rt with shaking. • 8. The readings were taken in Pherastar in HTRF mode (ext 337 nm, em 665 & 620 nm) • 9. The results were analyzed using Graphpad Prism® software after calculation the z factor signal window and % inhibition. • 10. The IC50 was calculated."}},
  "data": [
    {"smiles": "Cc1nn(Cc2cccnc2N(C)S(C)(=O)=O)c2cc(Nc3ccc4c(c3)CCC(=O)N4)ncc12", "note": "[Example 69]", "values": [
      {"measurement": "IC50", "setting": "[1]", "result": "> 1000", "unit": "nM"}
    ]},
    {"smiles": "CC(=O)Nc1ccc(Nc2cc3c(cn2)cnn3Cc2ccccc2OC(F)F)nc1", "note": "[Example 73]", "values": [
      {"measurement": "IC50", "setting": "[1]", "result": "> 1000", "unit": "nM"}
    ]},
    {"smiles": "CC(=O)Nc1ccc(Nc2cc3c(cn2)cnn3Cc2ccccc2OC(F)F)cc1", "note": "[Example 75]", "values": [
      {"measurement": "IC50", "setting": "[1]", "result": "> 1000", "unit": "nM"}
    ]},
    {"smiles": "N#Cc1ccccc1S(=O)(=O)n1ccc2cnc(Nc3ccc4c(c3)CCC(=O)N4)nc21", "note": "[Example 115]", "values": [
      {"measurement": "IC50", "setting": "[1]", "result": "< 20", "unit": "nM"},
      {"measurement": "IC50", "setting": "[2]", "result": "< 20", "unit": "nM"}
    ]},
    {"smiles": "CN(C)c1cccc(Nc2ncc3ccn(Cc4cccnc4N(C)S(C)(=O)=O)c3n2)c1", "note": "[Example 139]", "values": [
      {"measurement": "IC50", "setting": "[1]", "result": "< 20", "unit": "nM"},
      {"measurement": "IC50", "setting": "[2]", "result": "< 20", "unit": "nM"}
    ]},
    {"smiles": "Nc1ccccc1S(=O)(=O)n1ccc2cnc(Nc3ccc4c(c3)CCC(=O)N4)nc21", "note": "[Example 164]", "values": [
      {"measurement": "IC50", "setting": "[1]", "result": "< 20", "unit": "nM"}
    ]},
    {"smiles": "CN(c1ncccc1Cn1ccc2cnc(Nc3cccc(CO)c3)nc21)S(C)(=O)=O", "note": "[Example 166]", "values": [
      {"measurement": "IC50", "setting": "[1]", "result": "< 20", "unit": "nM"}
    ]},
    {"smiles": "CN(C)CCOc1cccc(Nc2ncc3ccn(S(=O)(=O)c4ccccc4C#N)c3n2)c1", "note": "[Example 173]", "values": [
      {"measurement": "IC50", "setting": "[1]", "result": "< 20", "unit": "nM"}
    ]},
    {"smiles": "CN(c1ncccc1Cn1ccc2cnc(Nc3ccc4nn[nH]c4c3)nc21)S(C)(=O)=O", "note": "[Example 189]", "values": [
      {"measurement": "IC50", "setting": "[1]", "result": "< 20", "unit": "nM"}
    ]},
    {"smiles": "CN(C)S(=O)(=O)c1ccccc1Cn1ccc2cnc(Nc3ccc(N4CCNCC4)cc3)nc21", "note": "[Example 200]", "values": [
      {"measurement": "IC50", "setting": "[1]", "result": "< 20", "unit": "nM"}
    ]},
    {"smiles": "CN(c1ncccc1Cn1ccc2cnc(Nc3ccc4c(c3)C(C)(C)CC(=O)N4)nc21)S(C)(=O)=O", "note": "[Example 211]", "values": [
      {"measurement": "IC50", "setting": "[1]", "result": "< 20", "unit": "nM"},
      {"measurement": "IC50", "setting": "[2]", "result": "< 20", "unit": "nM"}
    ]},
    {"smiles": "CN(c1ncccc1Cn1ccc2cnc(Nc3ccc4c(c3)OCC(=O)N4)nc21)S(C)(=O)=O", "note": "[Example 218]", "values": [
      {"measurement": "IC50", "setting": "[1]", "result": "< 20", "unit": "nM"},
      {"measurement": "IC50", "setting": "[2]", "result": "< 20", "unit": "nM"}
    ]},
    {"smiles": "C[C@H]1CN(c2ccc(Nc3ncc4ccn(S(=O)(=O)c5cccc6cccnc56)c4n3)cc2)CCN1", "note": "[Example 230]", "values": [
      {"measurement": "IC50", "setting": "[1]", "result": "< 20", "unit": "nM"},
      {"measurement": "IC50", "setting": "[2]", "result": "< 20", "unit": "nM"}
    ]},
    {"smiles": "O=S(=O)(c1cccc2cccnc12)n1ncc2cnc(Nc3ccc(N4CCNCC4)cc3)nc21", "note": "[Example 231, N-(4-(piperazin-1-yl)phenyl)-1-(quinolin-8-ylsulfonyl)-1H-pyrazolo[3,4-d]pyrimidin-6-amine]", "values": [
      {"measurement": "IC50", "setting": "[1]", "result": "< 20", "unit": "nM"},
      {"measurement": "IC50", "setting": "[2]", "result": "< 20", "unit": "nM"}
    ]},
    {"smiles": "O=S(=O)(c1cccc2cccnc12)n1ccc2cnc(Nc3ccc(N4CCNCC4)cc3)cc21", "note": "[Example 321]", "values": [
      {"measurement": "IC50", "setting": "[1]", "result": "< 20", "unit": "nM"},
      {"measurement": "IC50", "setting": "[2]", "result": "< 20", "unit": "nM"}
    ]},
    {"smiles": "O=S(=O)(c1cccc2cccnc12)n1ccc2cnc(Nc3ccc(N4CCNCC4)c(F)c3)cc21", "note": "[Example 323]", "values": [
      {"measurement": "IC50", "setting": "[1]", "result": "< 20", "unit": "nM"},
      {"measurement": "IC50", "setting": "[2]", "result": "< 20", "unit": "nM"}
    ]},
    {"smiles": "C[C@H]1CNCCN1c1ccc(Nc2ncc3ccn(S(=O)(=O)c4cccc5cccnc45)c3n2)cc1", "note": "[Example 326]", "values": [
      {"measurement": "IC50", "setting": "[1]", "result": "< 20", "unit": "nM"},
      {"measurement": "IC50", "setting": "[2]", "result": "< 20", "unit": "nM"}
    ]},
    {"smiles": "O=S(=O)(c1cccc2cccnc12)n1ccc2cnc(Nc3ccc(N4CCN(CCO)CC4)cc3)cc21", "note": "[Example 340]", "values": [
      {"measurement": "IC50", "setting": "[1]", "result": "< 20", "unit": "nM"},
      {"measurement": "IC50", "setting": "[2]", "result": "< 20", "unit": "nM"}
    ]},
    {"smiles": "O=S(=O)(c1cccc2cccnc12)n1ccc2cnc(Nc3ccc(N4CCC(O)CC4)cc3)cc21", "note": "[Example 346]", "values": [
      {"measurement": "IC50", "setting": "[1]", "result": "< 20", "unit": "nM"},
      {"measurement": "IC50", "setting": "[2]", "result": "< 20", "unit": "nM"}
    ]},
    {"smiles": "CN1CCN(c2ccc(Nc3cc4c(ccn4S(=O)(=O)c4cccc5cccnc45)cn3)cc2)CC1", "note": "[Example 353]", "values": [
      {"measurement": "IC50", "setting": "[1]", "result": "< 20", "unit": "nM"},
      {"measurement": "IC50", "setting": "[2]", "result": "< 20", "unit": "nM"}
    ]},
    {"smiles": "Cc1ccc2cccc(S(=O)(=O)n3ccc4cnc(Nc5ccc(N6CCNCC6)cc5)nc43)c2n1", "note": "[Example 367]", "values": [
      {"measurement": "IC50", "setting": "[1]", "result": "< 20", "unit": "nM"}
    ]},
    {"smiles": "c1cnc2c(Cn3ccc4cnc(Nc5ccc(N6CCNCC6)cc5)nc43)cccc2c1", "note": "[Example 378]", "values": [
      {"measurement": "IC50", "setting": "[1]", "result": "< 20", "unit": "nM"}
    ]},
    {"smiles": "O=S(=O)(c1cccc2cccnc12)n1ccc2cnc(Nc3ccc4ncsc4c3)nc21", "note": "[Example 381]", "values": [
      {"measurement": "IC50", "setting": "[1]", "result": "< 20", "unit": "nM"},
      {"measurement": "IC50", "setting": "[2]", "result": "< 20", "unit": "nM"}
    ]},
    {"smiles": "O=S(=O)(c1cccc2cccnc12)n1ccc2cnc(Nc3ccc(N4CCOCC4)cc3)nc21", "note": "[Example 389]", "values": [
      {"measurement": "IC50", "setting": "[1]", "result": "< 20", "unit": "nM"},
      {"measurement": "IC50", "setting": "[2]", "result": "< 20", "unit": "nM"}
    ]}
  ]
}
